Measurements published in EP3072511A1, “The medical use of 3-aryl substituted 1-indanones” (Centrum Badan Molekularnych I Makromolekularnych Polskiej …, priority 2013, dated 2016).

Legend:
[1] = tested on: cell line HeLa (cervix carcinoma, human); assay: MTT cytotoxicity test, HeLa cells; conditions: 48 h, read-out: HeLa IC50 after 48h
bovine diarrhea virus = bovine diarrhea virus as counterpart of hepatitis virus C; cited from earlier work

COP(=O)(OC)C1C(=O)c2cc3c(cc2C1c1ccccc1)OCO3 (stereo not drawn) [Compound 1a, 2-phosphoryl-3-phenyl substituted 1-indanone]
IC50 [1]: 90 µM

COc1cc(OC)c2c(c1)C(=O)CC2c1ccc(Br)cc1 (stereo not drawn) [Compound 3a, 3-(para-bromophenyl) substituted 1-indanone]
IC50 [1]: 60 µM

NC(=O)c1ncn([C@@H]2O[C@H](CO)[C@@H](O)[C@H]2O)n1 [ribavirin]
selectivity index (SI) (bovine diarrhea virus): 11.64
